Several values for one entry are separate records, joined by “and”; a condition that tells them apart may be missing. Equal entries are not always repeated. Structures can show the parent of a compound that is named as a salt.
Legend:
Tomato = test: Pre-emergence herbicide test, tomato; format: in vivo
Experimental: (§1) In this evaluation, each compound to be tested was dissolved in a 1:1 mixture of acetone and ethanol containing a small amount of Toximul R and Toximul S (each a sulfonate/nonionic blend produced by Stepan Chemical Company, Northfield, Illinois). The solution was then diluted with deionized water to a composition of the following concentrations, by weight: Plant species used as indicators of herbicidal activity were planted in galvanized pans (flats) 31.5 cm. long, 21.5 cm. wide, and 8.0 cm. deep. The bottoms of the flats had holes to facilitate drainage. The soil used was a 1:1 ratio by volume of masonry sand and shredded top soil. Flats that were to receive preemergence treatments were planted one day prior to, or on the same day treatments were applied. Flats that were to receive postemergence treatments were planted 9 days prior to treatment and placed in a growth chamber until the day of treatment. In the growth chamber, flats received 12 to 18 hours of light per day and were subject to temperatures of 75° to 85° F. The formulated test compound was applied uniformly to the indicator species with a modified DeVilbiss atomizer using air pressure of 3 to 5 psi. Each flat received 12.5 ml. of spray solution which was equal to 200 gallons/acre total spray volume. Plants were maintained in a greenhouse after treatment. Herbicidal effects of chemicals were evaluated by two injury rating systems 18 days after preemergence applications and 14 days after postemergence applications. The degree of plant injury was based on a 1 to 5 scale and a single numerical rating was assigned to each test species as follows: […]

Wild Oat = test: Pre-emergence herbicide test, wild oat; format: in vivo
Experimental: as §1

Large Crabgrass = test: Post-emergence herbicide test, large crabgrass; format: in vivo, Digitaria sanguinalis
Experimental: as §1, with “soil. Seeds of seven indicator species were planted in rows perpendicular to the long axis of the flat, one species per row, and covered with 0.5 to 1.0 cm. of sterilized soil. Indicator species and approximate number of seeds planted were as follows:” for “soil.”

Pigweed = test: Post-emergence herbicide test, pigweed; format: in vivo, Amaranthus retroflexus
Experimental: as §1, with “soil. Seeds of seven indicator species were planted in rows perpendicular to the long axis of the flat, one species per row, and covered with 0.5 to 1.0 cm. of sterilized soil. Indicator species and approximate number of seeds planted were as follows:” for “soil.”

Foxtail = test: Post-emergence herbicide test, foxtail; format: in vivo, Setaria italica
Experimental: as §1, with “soil. Seeds of seven indicator species were planted in rows perpendicular to the long axis of the flat, one species per row, and covered with 0.5 to 1.0 cm. of sterilized soil. Indicator species and approximate number of seeds planted were as follows:” for “soil.”

Southern armyworm = Southern armyworm test; format: in vivo, Spodoptera eridania; details: 1000 ppm, 4 days; as to Southern Armyworm Stom. (mortality rating): ranges in brackets are in %
Experimental: (§2) In this evaluation, each compound to be tested was dissolved in a 1:1 mixture of acetone and ethanol containing a small amount of Toximul R and Toximul S (each a sulfonate/nonionic blend produced by Stephan Chemical Company, Northfield, Ill.). The solution was then diluted with distilled water to a concentration of 1000 ppm of test compound.
This test was conducted with second to third instar larvae of Spodoptera eridania Cramer, Order Lepidoptera, Family Noctuidae. Uniform larvae (3rd instar) about 1 to 1.2 cm. in length were picked by hand from flats of Henderson lima beans and placed in plastic petri dishes.
The procedure otherwise was the same as used with the Mexican bean beetle reported above, except that 5 ml. of a formulation containing 100 ppm (0.01%) DDT [1,1,1-trichloro-2,2-bis(p-chlorophenyl)ethane] was used as the reference standard.

housefly = test: House fly contact test; as to all read-outs here: ranges in brackets are in %; format: in vivo, Musca domestica; details: 1000 ppm; for Housefly Kd. (knockdown rating): 2 hours; for Housefly Cont. (mortality rating): 24 hours
Experimental: as §2, with “compound. Lesser concentration formulations were made by diluting a portion of the 1000 ppm solution with distilled water containing 225 mg. of Toximul R and 125 mg. of Toximul S per liter.” for “compound.”
This test was conducted with 4-day-old adults of Musca domestica (Linne), Order Diptera, Family Muscidae.
Rearing cages of 4-day-old adult house flies were placed in a cold room and held for one hour at 35° to 40° F. to chill so that the flies could be transferred to test cages. Approximately 100 flies were transferred to each test cage using a small scoop. The stainless steel test cages were five inches in diameter and one and three-fourths inches deep with a stainless steel screen bottom and screened removable friction fitting lid. The small hole on the side of the cage was kept stoppered except when a wick was inserted for feeding and watering.
Each cage was sprayed with 5 ml. of the test formulation containing 1000 ppm. of the test compound, using a DeVilbiss atomizer supplied with 5 psi air pressure. The nozzle was 33 inches from the top of the cage. After spraying, cages were allowed to dry.
Knockdown counts were made two hours after spraying and then the flies were fed and watered by inserting a four-inch wick of Fibre Flex Supreme, unbleached (16/32"), (manufactured by Sackner Products, Inc., Grand Rapids, Mich.) in the hole on the side of the cage. The cage was placed so that the wick hung down into a pan of five percent sugar solution in water.
One replicate was run for each test compound. One unsprayed cage was held as a control, one cage was sprayed as a negative control, and one cage was sprayed with a formulation containing 50 ppm. (0.005%) DDT as a reference standard.
Mortality counts were made 24 hours after spraying. The cage was rapped lightly. […] Moribund flies were counted as dead.

Compound | plant injury rating (Tomato; 1/2 lb/A) | plant injury rating (Tomato; 2 lb/A) | plant injury rating (Wild Oat; 1/2 lb/A) | plant injury rating (Wild Oat; 1 lb/A) | plant injury rating (Wild Oat; 2 lb/A) | plant injury rating (Large Crabgrass; 1/4 lb/A) | plant injury rating (Large Crabgrass; 1 lb/A) | plant injury rating (Large Crabgrass; 2 lb/A) | plant injury rating (Large Crabgrass; 4 lb/A) | plant injury rating (Large Crabgrass; 8 lb/A) | plant injury rating (Pigweed; 1/4 lb/A) | plant injury rating (Pigweed; 1 lb/A) | plant injury rating (Pigweed; 2 lb/A) | plant injury rating (Pigweed; 4 lb/A) | plant injury rating (Pigweed; 8 lb/A) | plant injury rating (Foxtail; 1/4 lb/A) | plant injury rating (Foxtail; 1 lb/A) | plant injury rating (Foxtail; 2 lb/A) | plant injury rating (Foxtail; 4 lb/A) | plant injury rating (Foxtail; 8 lb/A) | further results
O=[N+]([O-])c1cc(C(F)(F)F)cc2c1NC(O)(C(F)(F)C(F)F)N2 (centres unmarked) [Example 2, 2-Hydroxy-2-(1,1,2,2-Tetrafluoroethyl)-4-Nitro-6-(Trifluoromethyl)Benzimidazoline, Sodium Salt, and Hydrate] | 2S | 1 (no injury) | 1 (no injury) | 1 (no injury) | 2 (slight injury) | 2BS | 4BS | 5D | 5D | 5D | 3BS | 5D | 5D | 5D | 5D | 3BS | 4BS | 4BS | 4BS | 5D | plant injury rating (Tomato; 1/4 lb/A): 1 (no injury); plant injury rating (Tomato; 4 lb/A): 4BS; plant injury rating (Wild Oat; 1/4 lb/A): 1 (no injury); plant injury rating (Wild Oat; 4 lb/A): 5 (death); plant injury rating (Large Crabgrass; 1/2 lb/A): 3BS; plant injury rating (Pigweed; 1/2 lb/A): 4BS; plant injury rating (Foxtail; 1/2 lb/A): 3BS; Southern Armyworm Stom. (mortality rating) (Southern armyworm): 0 (0); Housefly Kd. (knockdown rating) (housefly): 1 (1-50); Housefly Cont. (mortality rating) (housefly): 3 (100)
O=[N+]([O-])c1cc(C(F)(F)F)cc2c1NC(O)(C(F)(F)C(F)F)N2O (centres unmarked) [Example 12, 1,2-Dihydroxy-2-(1,1,2,2-Tetrafluoroethyl)-4-Nitro-6-(Trifluoromethyl)Benzimidazoline] | 1 (no injury) | 1 (no injury) | 1 (no injury) | 1 (no injury) | 2B | 3BS | 5D | 5D |  | 3BS | 3BS | 5D | 5D |  | 5D | 2B | 4BS | 4BS |  | 3BS | plant injury rating (Tomato; 1 lb/A): 1 (no injury); plant injury rating (Large Crabgrass; 1/8 lb/A): 3BS; plant injury rating (Pigweed; 1/8 lb/A): 3BS; plant injury rating (Foxtail; 1/8 lb/A): 2S; Southern Armyworm Stom. (mortality rating) (Southern armyworm): 0 (0); Housefly Kd. (knockdown rating) (housefly): 0 (0); Housefly Cont. (mortality rating) (housefly): 2 (51-99)
O=[N+]([O-])c1cc(Cl)cc2c1NC(O)(C(F)F)N2 (centres unmarked) [Example 5, 2-Hydroxy-2-(Difluoromethyl)-4-Nitro-6-Chlorobenzimidazoline, Calcium Salt] |  |  |  |  |  |  | 3BS | 3BS | 4BS | 4BS |  | 2S | 3BS | 3BS | 4BS |  | 4BS | 4BS | 3BS | 5D | Southern Armyworm Feed. (feeding rating) (Southern armyworm): 1 (1-50% of the leaves eaten); Southern Armyworm Stom. (mortality rating) (Southern armyworm; Calcium Salt): 3 (100) and 2 (51-99)
